According to patent US8192951B2, “Glycolysis-inhibiting substances in cell culture” (Wyeth LLC, priority 2006, dated 2012):

Experiments:
[1] = test system: α-GDF-8 cells (CHO cells engineered to express a monoclonal antibody against GDF-8); experiment: Cell growth of α-GDF-8 cells in culture dishes with varying 2-deoxyglucose (Example 1); format: cell-based, Chinese Hamster
Experimental: Materials and Methods: Chinese Hamster Ovary (“CHO”) cells engineered to express a monoclonal antibody against growth and differentiation factor 8 (“α-GDF-8 cells”) (see […] et al., Neutralizing Antibodies Against GDF-8 and Uses Therefor, US20040142382 A1) were grown in culture dishes in Medium 1 supplemented with glucose to a final initial concentration of 9 g/L with varying concentrations of 2-deoxyglucose.

α-GDF-8 cells [2] = experiment: Lactate, growth, viability and titer of α-GDF-8 cells in culture dishes, two passages (Example 2); format: cell-based, Chinese Hamster; design: key to Gluc: glucose in g/L; viab: unit not given here
Experimental: Materials and Methods: α-GDF-8 cells were grown in culture dishes in Medium 1 containing approximately 6 g/L glucose with varying concentrations of 2-deoxyglucose. Some α-GDF-8 cultures were optionally supplemented with glucose to a final initial concentration of 9 g/L. Cells were passaged twice and grown for three days after each passage. At the end of three days, each of the passaged cultures was measured for viability, cell density, glucose levels, lactate levels and α-GDF-8 titer. Specific titer production rate (“Qp”) and specific lactate uptake rate (“Qlact”) were calculated. Qlact was calculated as follows: ((final lactate level−initial lactate level)/(final cell density−initial cell density))×growth rate×24, where lactate levels are measured in g/L, cell densities are measured in 10^6 cells/ml, growth rate is measured as l/h, and the final Qlact is calculated as mg/e6/day. Qp was calculated as follows: ((final titer−initial titer)/(final cell density−initial cell density))×growth rate×24, where titer is measured in mg/L, cell density is measured in 10^6 cells/ml, growth rate is measured as 1/h, and Qp is calculated as μg/e6/day.

α-GDF-8 cells [3] = experiment: α-GDF-8 cells in 1 L Bioreactors, shift on day 4 or day 6 (Example 3); format: cell-based, Chinese Hamster
Experimental: Materials and Methods: α-GDF-8 cells were grown in Medium 2 in 1 L Bioreactors and fed with Medium 3. Some of the cultures were supplemented with 0.5 g/L 2-deoxyglucose at the beginning of the culture. The cultures were shifted from 37° Celsius to 31° Celsius on either day 4 (“early shift”) or day 6 (“late shift”). [table]

α-GDF-8 cells [4] = experiment: α-GDF-8 cells in 1 L Bioreactors, shift on day 5 or day 6 (Example 4); format: cell-based, Chinese Hamster
Experimental: Materials and Methods: α-GDF-8 cells were grown in Medium 2 in 1 L Bioreactors and fed with Medium 3. Some of the cultures were supplemented with 0.5 g/L 2-deoxyglucose at the beginning of the culture. The cells were fed with either 3 g/L glucose or 0.3 g/L 2-deoxyglucose on day 4 and with either 10% feed medium (by volume) or 10% feed medium (by volume) supplemented with 0.2 g/L 2-deoxyglucose on day 5. The cultures were shifted from 37° Celsius to 31° Celsius on either day 5 (“early shift”) or day 6 (“late shift”). Additional feeds were provided on days 7 and 10. [table]

α-GDF-8 cells [5] = experiment: α-GDF-8 cells in 1 L Bioreactors in the presence of high glucose (Example 5); format: cell-based, Chinese Hamster; settings: 0.5 g/L 2-deoxyglucose
Experimental: Materials and Methods: α-GDF-8 cells were grown in Medium 2 in 1 L Bioreactors and fed with Medium 3. The starting culture media were either supplemented or not with 0.5 g/L 2-deoxyglucose. The cells were fed on days 3, 5, 7, 10 and 12 to keep the glucose level at above approximately 8 g/L. The cultures lacking 2-deoxyglucose were shifted from 37° Celsius to 31° Celsius on day 4, while the cultures containing 2-deoxyglucose were shifted from 37° Celsius to 31° Celsius on day 5.

rats = settings: fed to rats, without decreasing total food intake; cited from earlier work
[6] = first passage, 0.25 g/L deoxyglucose, 9 g/L glucose
[7] = first passage, 0.5 g/L deoxyglucose, 6 g/L glucose
[8] = first passage, 0.5 g/L deoxyglucose, 9 g/L glucose
[9] = first passage, 1 g/L deoxyglucose, 9 g/L glucose
[10] = second passage, 0.25 g/L deoxyglucose, 9 g/L glucose
[11] = second passage, 0.5 g/L deoxyglucose, 6 g/L glucose
[12] = second passage, 0.5 g/L deoxyglucose, 9 g/L glucose
[13] = second passage, 1 g/L deoxyglucose, 6 g/L glucose
[14] = second passage, 1 g/L deoxyglucose, 9 g/L glucose
[15] = 0.5 g/L 2-deoxyglucose, early shift (day 4)
[16] = 0.5 g/L 2-deoxyglucose, late shift (day 6)

O=CC[C@@H](O)[C@H](O)[C@H](O)CO [2-deoxyglucose]
specific growth rate (μ) ([1]; 1 g/L 2-deoxyglucose, 9 g/L glucose (ratio 1:9)): over 0.02 l/h | specific growth rate (μ) ([1]; 2.5 g/L 2-deoxyglucose, 9 g/L glucose): approximately 0.015 l/h | effect of increasing amounts on specific growth rate ([1]; 9 g/L glucose): reduced the specific growth rate in a dose-dependent manner | effect on accumulation of lactate (α-GDF-8 cells [2]; culture dishes, dose-dependent): reduced the accumulation of lactate in the culture in a dose-dependent manner | effect on specific growth rate (α-GDF-8 cells [2]; culture dishes, dose-dependent): negatively affected | effect on α-GDF-8 titer (α-GDF-8 cells [2]; culture dishes, dose-dependent): reduced the α-GDF-8 titer in a dose-dependent manner | Gluc (α-GDF-8 cells [2]; [6]): 7.55 | Qlact (α-GDF-8 cells [2]; [6]): 0.899 mg/e6/day | c.d (end) (α-GDF-8 cells [2]; [6]): 1.3 10^6 cells/ml | lact (α-GDF-8 cells [2]; [6]): 1.53 g/L | viab (α-GDF-8 cells [2]; [6]): 99.7 | μ (specific growth rate) (α-GDF-8 cells [2]; [6]): 0.032 h⁻¹ | Gluc (α-GDF-8 cells [2]; [7]): 5.21 | Qlact (α-GDF-8 cells [2]; [7]): 0.701 mg/e6/day | c.d (end) (α-GDF-8 cells [2]; [7]): 1.24 10^6 cells/ml | lact (α-GDF-8 cells [2]; [7]): 1.2 g/L | viab (α-GDF-8 cells [2]; [7]): 99.1 | μ (specific growth rate) (α-GDF-8 cells [2]; [7]): 0.03 h⁻¹ | Gluc (α-GDF-8 cells [2]; [8]): 7.88 | Qlact (α-GDF-8 cells [2]; [8]): 0.727 mg/e6/day | c.d (end) (α-GDF-8 cells [2]; [8]): 1.12 10^6 cells/ml | lact (α-GDF-8 cells [2]; [8]): 1.22 g/L | viab (α-GDF-8 cells [2]; [8]): 99.3 | μ (specific growth rate) (α-GDF-8 cells [2]; [8]): 0.028 h⁻¹ | Gluc (α-GDF-8 cells [2]; [9]): 8.13 | Qlact (α-GDF-8 cells [2]; [9]): 0.553 mg/e6/day | c.d (end) (α-GDF-8 cells [2]; [9]): 1.05 10^6 cells/ml | lact (α-GDF-8 cells [2]; [9]): 0.9 g/L | viab (α-GDF-8 cells [2]; [9]): 99.7 | μ (specific growth rate) (α-GDF-8 cells [2]; [9]): 0.027 h⁻¹ | Gluc (α-GDF-8 cells [2]; [10]): 7.25 | Qlact (α-GDF-8 cells [2]; [10]): 0.576 mg/e6/day | Qp (α-GDF-8 cells [2]; [10]): 15.477 μg/e6/day | c.d (end) (α-GDF-8 cells [2]; [10]): 3.2 10^6 cells/ml | lact (α-GDF-8 cells [2]; [10]): 2.17 g/L | titer (α-GDF-8) (α-GDF-8 cells [2]; [10]): 58.28 mg/L | viab (α-GDF-8 cells [2]; [10]): 99.5 | μ (specific growth rate) (α-GDF-8 cells [2]; [10]): 0.035 h⁻¹ | Gluc (α-GDF-8 cells [2]; [11]): 5.04 | Qlact (α-GDF-8 cells [2]; [11]): 0.415 mg/e6/day | Qp (α-GDF-8 cells [2]; [11]): 13.135 μg/e6/day | c.d (end) (α-GDF-8 cells [2]; [11]): 2.6 10^6 cells/ml | lact (α-GDF-8 cells [2]; [11]): 1.36 g/L | titer (α-GDF-8) (α-GDF-8 cells [2]; [11]): 43 mg/L | viab (α-GDF-8 cells [2]; [11]): 99 | μ (specific growth rate) (α-GDF-8 cells [2]; [11]): 0.033 h⁻¹ | Gluc (α-GDF-8 cells [2]; [12]): 7.65 | Qlact (α-GDF-8 cells [2]; [12]): 0.506 mg/e6/day | Qp (α-GDF-8 cells [2]; [12]): 14.252 μg/e6/day | c.d (end) (α-GDF-8 cells [2]; [12]): 2.8 10^6 cells/ml | lact (α-GDF-8 cells [2]; [12]): 1.79 g/L | titer (α-GDF-8) (α-GDF-8 cells [2]; [12]): 50.37 mg/L | viab (α-GDF-8 cells [2]; [12]): 99.6 | μ (specific growth rate) (α-GDF-8 cells [2]; [12]): 0.033 h⁻¹ | Gluc (α-GDF-8 cells [2]; [13]): 6.51 | Qlact (α-GDF-8 cells [2]; [13]): 0.290 mg/e6/day | Qp (α-GDF-8 cells [2]; [13]): 12.038 μg/e6/day | c.d (end) (α-GDF-8 cells [2]; [13]): 1.5 10^6 cells/ml | lact (α-GDF-8 cells [2]; [13]): 0.68 g/L | titer (α-GDF-8) (α-GDF-8 cells [2]; [13]): 28.22 mg/L | viab (α-GDF-8 cells [2]; [13]): 98.6 | μ (specific growth rate) (α-GDF-8 cells [2]; [13]): 0.027 h⁻¹ | Gluc (α-GDF-8 cells [2]; [14]): 9 | Qlact (α-GDF-8 cells [2]; [14]): 0.290 mg/e6/day | Qp (α-GDF-8 cells [2]; [14]): 12.400 μg/e6/day | c.d (end) (α-GDF-8 cells [2]; [14]): 1.9 10^6 cells/ml | lact (α-GDF-8 cells [2]; [14]): 0.98 g/L | titer (α-GDF-8) (α-GDF-8 cells [2]; [14]): 34.85 mg/L | viab (α-GDF-8 cells [2]; [14]): 99 | μ (specific growth rate) (α-GDF-8 cells [2]; [14]): 0.028 h⁻¹ | Qlact (α-GDF-8 cells [2]; second passage, 1 g/L deoxyglucose, 9 g/L glucose, listed as 2-Deoxyglucose): 0.349 mg/e6/day | effect on viability of the cells (α-GDF-8 cells [2]; up to a ratio of 2-deoxyglucose to glucose of 1 to 6): largely unaffected | final titer vs culture lacking 2-deoxyglucose (α-GDF-8 cells [3]; [15]): slightly higher | lactate levels vs culture lacking 2-deoxyglucose (α-GDF-8 cells [3]; [15]): slightly lower | cell density at the time of the shift (α-GDF-8 cells [3]; [16]): approximately 18 ×e^6/mL | final titer vs culture lacking 2-deoxyglucose (α-GDF-8 cells [3]; [16]): slightly higher | lactate level at the time of the shift (α-GDF-8 cells [3]; [16]): approximately 6 g/L | lactate levels vs culture lacking 2-deoxyglucose (α-GDF-8 cells [3]; [16]): slightly lower | viability vs late shifted cells without 2-deoxyglucose (α-GDF-8 cells [3]; [16]): significantly higher | cell density vs the other three conditions (α-GDF-8 cells [3]; 0.5 g/L 2-deoxyglucose, late shift (day 6), from approximately day 4): significantly higher | lactate level at the time of the shift (α-GDF-8 cells [3]; early shift (day 4), stated for the two early shifted cultures, with and without 2-deoxyglucose): 4 to 5 g/L | final lactate concentration vs early shifted cultures (α-GDF-8 cells [4]; [16]): lower | α-GDF-8 produced per cell vs other three conditions (α-GDF-8 cells [4]; [16]): less α-GDF-8 per cell | cell density vs the other three conditions (α-GDF-8 cells [4]; 0.5 g/L 2-deoxyglucose, late shift (day 6), from approximately day 5): significantly higher | glucose uptake (α-GDF-8 cells [4]; 2-deoxyglucose in the culture medium, early and late shift): decrease | overall titer of α-GDF-8 vs other culture conditions (α-GDF-8 cells [4]; all four culture conditions): similar | lactate accumulation vs cultures lacking 2-deoxyglucose (α-GDF-8 cells [5]; glucose above approximately 8 g/L, shift day 5): significantly lower | α-GDF-8 titer vs culture lacking 2-deoxyglucose (α-GDF-8 cells [5]; high glucose, by day 14): slightly higher | cell density vs culture lacking 2-deoxyglucose (α-GDF-8 cells [5]; high glucose, middle stage of the culture): slightly higher | overall integrated viable cell density vs cells without 2-deoxyglucose (α-GDF-8 cells [5]; high glucose, shifted one day later): higher | glucose/energy flux (rats): reduces glucose/energy flux
